{
  "source": "patent US20190211099A1",
  "about": "“METHODS AND COMPOSITIONS FOR TREATING CANCER WITH SIGLEC-9 ACTIVITY MODULATORS” (KING'S COLLEGE LONDON, priority 2016, published 2019)",
  "key": {"Siglec-9 [1]": {"target": "T1, Siglec-9 (Homo sapiens, UniProt Q9Y336)", "test": "Phosphorylation of Siglec-9 (ELISA, phospho immunoreceptor array)", "type": "cell-based", "details": "monocytes and macrophages; antibody cross-linked", "experimental": "To determine the intracellular effects of MUC1-ST binding to Siglec-9, the ability of MUC1-ST to induce phosphorylation of the immunoreceptor tyrosine-based inhibitory motif (ITIM) of Siglec-9 thereby inducing intracellular inhibitory signals (Avril et al. (2004) J. IMMUNOL. 173: 6841-6849) was assessed. Without wishing to be bound by theory, it was hypothesized that this was likely occur as the repeated glycans found on MUC1 could be able to crosslink this lectin. To investigate the effects of MUC1-ST on Siglec-9 phosphorylation, monocytes or differentiated M-CSF macrophages were treated with MUC1-ST or cross-linked anti-Siglec-9 antibody at 4° C. for 4 hours or 30 minutes, respectively, and were then brought to 37° C. for 15 minutes, and lysed in the presence of pervanadate. Lysates were assessed for the phosphorylation of Siglec-9 using an ELISA or a 59 phospho immunoreceptor array (Bio-Techne) according to the manufacturer's instructions. For the ELISA, anti-human Siglec-9 was plated overnight (O/N) on plastic before being blocked with 1% BSA in PBS. Clarified supernatant was added and incubated for 2 hours. After incubation with 1 μg/mL biotinylated anti phospho-tyrosine, O.D. at 450 nm was measured after the addition of streptavidin-HRP and substrate."}, "allogeneic CD8+ T cells": {"system": "allogeneic CD8+ T cells", "test": "Co-culture of MUC1-ST treated macrophages with allogeneic CD8+ T cells", "type": "cell-based, human", "details": "macrophages educated with MUC1-ST", "experimental": "Thereafter, the effects of MUC1-ST educated macrophages on T cell function were analyzed. Macrophages treated with MUC1-ST were co-cultured with eFluor® 670 labelled allogeneic CD8+ T cells in the presence of absence of anti-Siglec-9 antibody or isotype control. Indeed, macrophages that had been educated with MUC1-ST were decreased in their ability to stimulate the proliferation of allogeneic CD8 T cells (FIG. 11E). […] (FIG. 11F). This profile of expression and functional activity is indicative of tumor-associated macrophages (TAMs), which play a role in promoting tumor progression (Noy et al. (2014) IMMUNITY 41: 49-61; Sousa et al. (2015) BREAST CANCER RES. 17: 101; Qian et al. (2010) CELL 141: 39-45)."}, "Siglec-9 [2]": {"target": "T1, Siglec-9", "test": "Binding of biotinylated MUC1 glycoforms to plate-bound recombinant Siglec fusion proteins", "details": "2 μg/ml biotinylated MUC1 glycoform, 4 hours; compared with Siglecs 3, 7 and 10", "experimental": "Binding was enhanced when cells were pre-treated with 0.04 U/ml neuraminidase for 30 minutes at 37° C. in PBS (FIG. 3C), which removes competing cis-binding sialic acid sites from the surface of the cells. As this pattern is characteristic of binding to Siglecs (Macauley et al. (2014) NAT. REV. IMMUNOL. 14: 653-666), MUC1-ST binding to Siglecs was tested as follows: mouse anti human IgG was bound to plastic O/N and the plate was blocked using 1% BSA in PBS. Recombinant human Siglec (3, 5, 7, 8, 9 and 10) fusion proteins were added at 2 μg/mL for 2 hours. After incubation with 2 μg/ml biotinylated MUC1 glycoforms for 4 hours, O.D. was measured after the addition of streptavidin-HRP and substrate. […] Although Siglecs 3, 7 and 9 are expressed by monocytes and macrophages (FIG. 3D), a blocking antibody to Siglec-9 inhibited 80-95% of the MUC1-ST binding to these cells (FIGS. 2G-2I, 3E, and 5) indicating this is the dominant binding Siglec. […] Importantly, Siglec-9 bound to the breast cancer cell line T47D that expresses MUC1 carrying sialylated Core-1 glycans (FIG. 2J). Finally, isolated monocytes were bound to 10 μg/mL biotinylated MUC1-ST or 10 μg/mL biotinylated polyacrylamide carrying the ST glycan (PAA-ST; Glycotech)."}, "[3]": {"system": "indoleamine 2,3-dioxygenase (IDO)", "test": "IDO mRNA in monocyte-derived macrophages (qRT-PCR)", "type": "cell-based, human", "details": "macrophages differentiated with GM-CSF or M-CSF"}, "THP-1 cells [4]": {"system": "THP-1 cells", "test": "PAI-1, M-CSF and kynurenine in supernatants of differentiated THP-1 cells", "type": "cell-based, human", "details": "100 μg/mL MUC1-ST", "experimental": "THP-1 cells were cultured at a concentration of 1×10^6/mL in AIM V medium. Cells were differentiated using […] phorbol 12-myristate 13-acetate (PMA) on day 0 and 100 ng/mL LPS on day 3 in the presence or absence of 100 μg/mL MUC1-ST or MUC1-T. Cell supernatants were harvested on day 5 and PAI-I concentration measured by ELISA.\nGiven that IDO catalyzes the rate-limiting step in the metabolism of tryptophan, the tryptophan metabolite kynurenine was detected as follows. 604, supernatant was mixed with 304, 30% trichloroacetic acid (TCA) and incubated for 30 minutes at 50° C. The supernatant was spun at 3000×g and 50 μL was harvested and mixed with 50 μL freshly prepared Ehrlich Reagent (2% p-dimethylaminobenzaldehyde in glacial acetic acid). After 10 minutes optical density (O.D.) was measured at 492 nm, and concentrations were calculated against a kynurenine standard curve. An increase in the tryptophan metabolite kynurenine was observed (FIG. 11D).\nThe intracellular effects of MUC1-ST binding to Siglec-9 were further explored in the monocytic cell line, THP-1. THP-1 cells were cultured for three days at a concentration of 1×10^6/mL in AIM V medium and differentiated using […] phorbol 12-myristate 13-acetate (PMA) in the presence or absence of 100 μg/mL MUC1-ST. […] THP-1 cells were further treated with DMSO or the MEK/ERK inhibitor PD98059 at 1004, and the concentration of PAI-1, M-CSF and kynurenine in cell supernatants were measured as described above. […] This increase in concentration was blocked by the MEK/ERK inhibitor PD98059 (FIG. 4I)."}, "THP-1 cells [5]": {"system": "THP-1 cells", "test": "Calcium flux in differentiated THP-1 cells", "type": "cell-based, human", "details": "THP-1 differentiated with PMA, 100 μg/mL MUC1-ST", "experimental": "In addition, in a murine tumor model Siglec-E (the mouse Siglec with the most similarity to human Siglec-9), was associated with a decrease in alternatively activated macrophages (Laubli et al. (2014) PROC. NATL. ACAD. SCI. USA). As a result, the triggering of a calcium flux when MUC1-ST engaged Siglec-9 was investigated. Briefly, monocytes pre-labeled with an intracellular calcium reporter (Fluo-4; Life Technologies) were treated with MUC1-ST, MUC1-T (100 μg/10^6 cells) or a T47D monolayer, for 4 hours at 4° C. The cells were brought up to 37° C. and calcium flux was measured at 530 nm using a plate reader at the indicated time points. Where not indicated, the time point was 60 seconds. When monocytes or macrophages were treated with MUC1-ST, a Siglec-9 dependent increase in calcium influx was observed (FIGS. 13E-F). A calcium flux was also observed when monocytes and T47D cells came into contact. This effect could also be inhibited by the anti-Siglec-9 antibody.\nThe intracellular effects of MUC1-ST binding to Siglec-9 were further explored in the monocytic cell line, THP-1. […] THP-1 cells were further treated with DMSO or the MEK/ERK inhibitor PD98059 at 1004, and the concentration of PAI-1, M-CSF and kynurenine in cell supernatants were measured as described above. […]"}},
  "data": [
    {"substance": "NeuAcα2,3Galβ1-3GalNAc linked via a Ser/Thr of MUC1 [MUC1-ST]", "values": [
      {"measurement": "phosphorylation of Siglec-9", "setting": "Siglec-9 [1]", "value": "inhibited"},
      {"measurement": "CD8 IFNγ secretion", "setting": "allogeneic CD8+ T cells", "value": "decreased"},
      {"measurement": "ability of macrophages to stimulate proliferation of allogeneic CD8 T cells", "setting": "allogeneic CD8+ T cells", "value": "decreased"},
      {"measurement": "binding to recombinant Siglec fusion protein", "setting": "Siglec-9 [2]", "value": "greatest binding"},
      {"measurement": "increase in expression of mRNA encoding IDO", "setting": "[3]", "value": "10-25 fold"},
      {"measurement": "PAI-1 concentration in cell supernatants", "setting": "THP-1 cells [4]; THP-1, PMA, three days", "value": "increased"},
      {"measurement": "kynurenine concentration in cell supernatants", "setting": "THP-1 cells [4]; THP-1, PMA, three days", "value": "increased"},
      {"measurement": "PAI-I secretion", "setting": "THP-1 cells [4]; THP-1 differentiated with PMA and LPS, day 5", "value": "increased"},
      {"measurement": "calcium flux", "setting": "THP-1 cells [5]", "value": "induce calcium flux"}
    ]}
  ]
}
